Here are results for eleven molecules from patent US20200031848A1, “AR-V7 INHIBITORS” (Hoffmann-La Roche Inc., priority 2016, published 2020).

By IC50 is commonly meant the concentration that inhibits the measured activity by half. A low value points to greater potency. As a reminder, the microsomal CLint is a measure of how fast metabolising enzymes remove a compound, apart from limits set by blood flow. A high value points to rapid turnover.

The test system of series [1] is PSA levels secreted into the media. The experiment in a line: Prostate-specific antigen (PSA) assay. Type of series: cell-based. As to conditions: Homo sapiens, 72 h; in parallel to the eGFP assay, same plates, 3 days. How it is done: (§1) 1. Cell Culture: LNCaP and PC3 human prostate cancer cells were obtained from American Type Culture Collection (ATCC, Manassas, Va.) and grown in RPMI 1640 medium supplemented with 5% fetal bovine serum (FBS) (Invitrogen). The LNCaP eGFP cell line was stably transfected with an androgen-responsive probasin-derived promoter fused to an eGFP reporter (LN-ARR2PB-eGFP) using a lentiviral approach, and were grown in phenol-red-free RPMI 1640 supplemented with 5% CSS. In-house developed MDV3100-resistant LNCaP cells were cultured in RPMI 1640 supplemented with 5% FBS and 10 μM MDV3100. All cells were maintained at 37° C. in 5% CO2.
3. Prostate-specific antigen (PSA) assay: The evaluation of PSA levels secreted into the media was performed in parallel to the eGFP assay using the same plates. After cells were incubated for 3 days, 150 μl of the media was taken from each well, and added to 150 μl of PBS. PSA levels were then evaluated using Cobas e 411 analyzer instrument (Roche Diagnostics) according to the manufacturer's instructions.

Series [2] addresses T1, AR transcriptional activity (Homo sapiens, UniProt P10275, T878A).
T1 construct: The LNCaP eGFP cell line was stably transfected with an androgen-responsive probasin-derived promoter fused to an eGFP reporter; endogenous in cells; host or cells: LNCaP eGFP (LN-ARR2PB-eGFP) human prostate cancer cells
T1 sequence (P10275 1-920 T878A): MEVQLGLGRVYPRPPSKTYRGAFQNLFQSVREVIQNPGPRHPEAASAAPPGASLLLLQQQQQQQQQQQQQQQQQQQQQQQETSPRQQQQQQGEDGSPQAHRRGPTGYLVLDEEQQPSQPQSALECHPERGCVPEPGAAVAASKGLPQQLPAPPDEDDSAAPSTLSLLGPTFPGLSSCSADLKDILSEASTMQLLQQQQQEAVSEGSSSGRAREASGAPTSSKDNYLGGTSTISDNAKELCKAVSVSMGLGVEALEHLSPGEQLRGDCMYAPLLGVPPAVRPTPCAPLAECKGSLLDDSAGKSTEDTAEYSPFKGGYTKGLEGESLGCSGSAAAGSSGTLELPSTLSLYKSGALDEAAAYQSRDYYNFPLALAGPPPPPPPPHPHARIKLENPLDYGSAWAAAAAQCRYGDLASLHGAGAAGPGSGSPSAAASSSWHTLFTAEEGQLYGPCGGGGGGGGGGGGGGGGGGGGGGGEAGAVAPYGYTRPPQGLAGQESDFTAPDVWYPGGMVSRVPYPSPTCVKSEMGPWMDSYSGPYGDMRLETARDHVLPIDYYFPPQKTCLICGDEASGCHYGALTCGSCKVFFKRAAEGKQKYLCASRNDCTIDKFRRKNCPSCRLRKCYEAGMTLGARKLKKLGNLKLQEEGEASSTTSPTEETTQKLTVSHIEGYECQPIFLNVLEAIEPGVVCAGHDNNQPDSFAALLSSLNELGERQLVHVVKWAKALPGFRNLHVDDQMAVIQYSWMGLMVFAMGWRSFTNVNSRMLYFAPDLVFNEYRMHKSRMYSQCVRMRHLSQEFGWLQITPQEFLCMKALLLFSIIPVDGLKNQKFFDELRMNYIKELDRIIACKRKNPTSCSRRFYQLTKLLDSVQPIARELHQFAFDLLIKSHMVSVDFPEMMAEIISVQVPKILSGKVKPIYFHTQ
The experiment in a line: eGFP cellular AR transcription assay. As to conditions: LNCaP eGFP cell line. Type of series: cell-based.
Text: The DNA-binding domain is an attractive target for inhibition of AR dimerization and/or DNA binding. In silico computational drug discovery methods were used to conduct a virtual screen of >3 million purchasable lead-like compounds from the ZINC database (Irwin, J. et al.^11) to identify potential DBD binders. The in silico methods included large-scale docking, in-site rescoring and consensus voting procedures. It will be understood by a person of skill that COOH and NR2 may include the corresponding ions, for example carboxylate ions and ammonium ions, respectively. Alternatively, where the ions are shown, a person of skill in the art will appreciate that the counter ion may also be present. Furthermore, it will be appreciated by a person of skill that other moieties may include the corresponding ions, and where the ions are shown, a person of skill in the art will appreciate that the counter ion may also be present. […] Where the % inhibition, eGFP IC50 or the PSA IC50 has no value given, this may be because no measurement was taken or the value was not calculated, in the case of the % inhibition. In vitro identification of AR inhibitors targeting AR DBD The selected compounds were assessed with a non-destructive eGFP assay that quantifies levels of AR transcriptional activity, were identified (table below).
as §1
2. eGFP cellular AR transcription assay: The AR transcriptional activity was assayed as previously described (Tavassoli, P., et al.^12).

Another series can be described thus: in vitro. As to conditions: human, microsomes, pH 7.4. How it is done:
Microsomal incubations were carried out in 96-well plates in 5 aliquots of 40 μL each (one for each time point). […] Control incubations were performed replacing the NADPH-cofactor system with PBS. […] Incubations were performed in duplicates. Five time points over 40 minutes had been analyzed. The reactions were stopped by adding 12 volumes of 90% acetonitrile-water to incubation aliquots, followed by protein sedimentation by centrifuging at 5500 rpm for 5 minutes. Supernatants were analyzed using the HPLC system coupled with tandem mass spectrometer. The elimination constant (kel), half-life (t1/2) and intrinsic clearance (Clint) were determined in plot of […] versus time, using linear regression analysis: […]

Take `Brc1ncn(-c2csc(N3[C@@H]4CCC[C@H]3COC4)n2)c1Br` [Example 4, (1S,5R)-9-[4-(4,5-dibromoimidazol-1-yl)thiazol-2-yl]-3-oxa-9-azabicyclo[3.3.1]nonane]: the 50% inhibitory concentration (IC50) amounted to 6 nM in series [1] and 196 nM in series [2].

For `Clc1ncn(-c2csc(N3[C@@H]4CCC[C@H]3COC4)n2)c1Br` [Example 5, (1R,5S)-9-[4-(5-bromo-4-chloro-imidazol-1-yl)thiazol-2-yl]-3-oxa-9-azabicyclo[3.3.1]nonane], the figures for the IC50 in series [1] and in series [2] were 181 nM and 268 nM, respectively.

Regarding `Clc1ncn(-c2csc(N3[C@@H]4CC[C@H]3COC4)n2)c1Br` [Example 6, (1R,5S)-8-[4-(5-bromo-4-chloro-imidazol-1-yl)thiazol-2-yl]-3-oxa-8-azabicyclo[3.2.1]octane], the IC50 in series [1] was 377 nM; in series [2], 404 nM.

Consider `Brc1ncn(-c2csc(N3[C@@H]4CC[C@H]3COC4)n2)c1Br` [Example 7, (1R,5S)-8-[4-(4,5-dibromoimidazol-1-yl)thiazol-2-yl]-3-oxa-8-azabicyclo[3.2.1]octane], for which the values for the IC50 in series [1] and in series [2] were 385 nM and 458 nM, respectively.

In the case of `Clc1c(Br)ncn1-c1csc(N2[C@@H]3CC[C@H]2COC3)n1` [Example 8, (1R,5S)-8-[4-(4-bromo-5-chloro-imidazol-1-yl)thiazol-2-yl]-3-oxa-8-azabicyclo[3.2.1]octane], the concentration for half-maximal inhibition (IC50) in series [1] and in series [2] was 717 nM each time.

As for `Clc1c(Br)ncn1-c1csc(N2[C@@H]3CCC[C@H]2COC3)n1` [Example 9, (1R,5S)-9-[4-(4-bromo-5-chloro-imidazol-1-yl)thiazol-2-yl]-3-oxa-9-azabicyclo[3.3.1]nonane], the 50% inhibitory concentration (IC50) in series [1] was found to be 784 nM; in series [2], 746 nM.

As to `Brc1cn(-c2csc(N3[C@@H]4CC[C@H]3COC4)n2)c(Br)n1` [Example 10, (1R,5S)-8-[4-(2,4-dibromoimidazol-1-yl)thiazol-2-yl]-3-oxa-8-azabicyclo[3.2.1]octane], the figures for the IC50 in series [1] and in series [2] were 817 nM and 934 nM, respectively.

Consider `Brc1cn(-c2csc(N3CCOCC3)n2)c(Br)n1` [Example 40, 4-[4-(2,4-dibromoimidazol-1-yl)thiazol-2-yl]morpholine], for which the values for the IC50 in series [1] and in series [2] were 420 nM and 413 nM, respectively. Moreover, the intrinsic metabolic clearance (microsomal CLint) at 2 μM in the series “in vitro” amounted to 177 µL/min/mg.

Consider `CSc1nc(Br)cn1-c1csc(N2CCOCC2)n1` [Example 41, 4-[4-(4-bromo-2-methylsulfanyl-imidazol-1-yl)thiazol-2-yl]morpholine], for which the results for the IC50 in series [1] and in series [2] were 458 nM and 496 nM, respectively. In the series “in vitro”, this molecule showed a microsomal CLint at 2 μM of 198 µL/min/mg.

As for `Cc1nc(Br)cn1-c1csc(N2CCOCC2)n1` [Example 42, 4-[4-(4-bromo-2-methyl-imidazol-1-yl)thiazol-2-yl]morpholine], the figures for the IC50 in series [1] and in series [2] were 659 nM and 750 nM, respectively. Further, the intrinsic metabolic clearance (microsomal CLint) at 2 μM in “in vitro” stood at 72 µL/min/mg.

`Brc1ncn(-c2csc(N3CCOCC3)n2)c1Br` [Example 43, 4-[4-(4,5-dibromoimidazol-1-yl)thiazol-2-yl]morpholine]: the IC50 is 1390 nM in series [1] and 1230 nM in series [2]. The molecule also showed an intrinsic clearance (microsomal CLint) at 2 μM in the series “in vitro” of 165 µL/min/mg.
